Data on five compounds can be found in patent publication US20070293443A1, “Composition for Accelerating Calcium Absorption” (Good Shusei Co. Ltd, priority 2004, published 2007).

Entries after “also recorded” stand apart in the source; their conditions may differ.

Data set [1] concerns dietary calcium absorption. Briefly: Dietary calcium absorption accelerating effect of sodium L-arabonate in mice fed calcium-deficient diet (Example 2). It is filed as in vivo. To be noted: for Ca level in blood, 0 min: 0 min (before administration); for Ca level in blood, 0 min / Ca level in blood, 2 hrs / Ca level in blood, 4 hrs: oral 5 mmol/kg calcium carbonate alone (Group I) or with 5 mmol/kg sodium L-arabonate (Group II), n = 4; for Ca level in blood, 2 hrs: 2 hrs after administration; for Ca level in blood, 4 hrs: 4 hrs after administration; for change in blood calcium level: up to 4 hours after oral administration, mice on calcium-deficient diet. The protocol:
Eight-week old male ICR mice were used and fed calcium-deficient diet and deionized water for one week. The mice were fasted overnight before the test, and were given deionized water only during the test period. […] The obtained data were analyzed by a paired t-test, and a risk ratio of 5% or less was considered as significant difference.

For data set [2], the system named is dietary calcium absorption. Briefly: Dietary calcium absorption accelerating effect, blood calcium level after oral calcium carbonate with test substance (Example 1). Conditions: male ICR mice, oral 5 mmol/kg calcium carbonate alone or with test substance (1.25-10.0 mmol/kg), up to 4 hours after administration. Type of data set: in vivo. From the text: For the experiment, 11-weeks old male ICR mice were used after overnight fasting. During the test period, the mice were given deionized water only. […] The doses of L-arabonic acid administered in combination were 1.25 mmol/kg (Group II), 2.5 mmol/kg (Group III), 5.0 mmol/kg (Group IV), and 10.0 mmol/kg (Group V), and the doses of D-gluconic acid were 2.5 mmol/kg (Group VI), 5.0 mmol/kg (Group VII), and 10.0 mmol/kg (Group VIII). […] The blood calcium level was quantified by a chelate colorimetric method (ortho-cresolphthalein complexone (OCPC) method). The obtained data were analyzed by a paired t-test, and a risk ratio of 5% or less was considered as significant difference.

The nature of data set [3]: Kinetics of L-arabonic acid in the digestive tract of rat (Example 3). Type of data set: in vivo. The protocol:
For the experiment, 7 to 11-weeks old male Wistar rats were used after overnight fasting. After orally administering 5 mmol/kg of L-arabonic acid, the animals were entered into a metabolic cage, and were sacrificed after 2 hours, after 6 hours, and after 24 hours, to remove the digestive tracts. The contents in each site of the digestive tract were recovered respectively, and the amount of unaltered L-arabonic acid was quantified by the HPLC method. The entire amounts of urine and feces up to the respective time points were recovered, and the amounts of L-aranobic acid were quantified in the same manner. During the test period, the animals were given deionized water only.

The next data set deals with mice. Briefly: Single oral administration safety test, LD50. Type of data set: in vivo. From the text: As a result of a single oral test using mice, it was confirmed that the LD50 value of L-arabonic acid was about 10 g/kg, and thus L-arabonic acid was a material having high safety.
While it was discovered in Example 5 that the calcium moiety of calcium L-arabonate used in the invention was extremely readily-absorbable, it was shown in Example 6 that the L-arabonic acid moiety was extremely poorly absorbed in the digestive tract.

Data set [4] deals with experimental osteoporosis induced by calcium-deficient diet. Briefly: Experimental osteoporosis induced by calcium-deficient diet (Example 7). Conditions: dose 2.5 mmol/kg oral daily. Type of data set: in vivo, mice. The method, then:
(§1) Six-week old female ICR mice were divided into five groups (Groups I to V, 10 animals in each group), and fed calcium-deficient feed (calcium carbonate-free AIN 93M, Oriental Yeast Co., Ltd.) for 4 weeks to induce osteoporosis condition. Calcium L-arabonate was dissolved in water and orally administered daily in a dose of 1.25 mmol/kg (Group II) or 2.5 mmol/kg (Group III). The control group for pathological condition (Group I) was administered with water in the same manner. As a comparative group, a group administered with calcium D-gluconate (dose 2.5 mmol/kg (Group IV)) was provided. A normal control group (Group V) was separately provided and was given the normal feed (AIN 93M, Oriental Yeast Co., Ltd.). After administering the test substance on the second week and fourth week of initiation of the test, the animals were transferred to a metabolic cage, and feces were collected for 24 hours. The amount of calcium and phosphorus excreted in the feces were measured, and the absorption rates of ingested calcium and phosphorous in the digestive tract were determined. After completion of the test period, the animals of the respective groups were sacrificed to remove both femurs and tibiae. The femurs and tibiae were removed muscles etc., then immersed in 70% ethanol overnight, and dried at 60° C. for 24 hours to be used as samples for analysis. The measurement items were dry weight, ash content, calcium content, and phosphorus content. The ash content was measured by an ashing method at 550° C. for 18 hours, the calcium content was measured by an OCPC method (Calcium C-Test Wako, Wako Pure Chemical Industries, Ltd.), and the phosphorus content was measured by a p-methylaminophenol reduction method (Phospho C-Test Wako, Wako Pure Chemical Industries, Ltd.). The obtained data were analyzed by ANOVA and the Dunnett's method, and a risk ratio of 5% or less was considered as significant difference.

For data set [5], the system named is experimental osteoporosis induced by combination of ovary excision and calcium-deficient diet. Briefly: Experimental osteoporosis due to combination of ovary excision and calcium-deficient diet (Example 8). Conditions: dose 2.5 mmol/kg oral daily. Type of data set: in vivo, mice. The protocol: as §1
Six-weeks old female ICR mice excised their ovaries were divided into 5 groups (Groups I to V, 10 animals in each group), and fed calcium-deficient feed (calcium carbonate-free AIN 93M, Oriental Yeast Co., Ltd.) for 4 weeks to induce osteoporosis condition. Calcium L-arabonate was dissolved in water, and orally administered daily in a dose of 1.25 mmol/kg (Group II) or 2.5 mmol/kg (Group III). The control group for pathological condition (Group I) was administered with water in the same manner. As a comparative group, a group administered with calcium D-gluconate (dose 2.5 mmol/kg (Group IV)) was provided. Also, a group excised ovaries but given with normal feed (AIN 93M, Oriental Yeast Co., Ltd.) (Group V) was separately provided. The measurement of the absorption rate of calcium in the digestive tract, and the analysis of femur and tibia were performed in the same manner as in Example 7.

Data set [6] can be described thus: Blood calcium level after administration of calcium L-arabonate (Example 5). It is filed as in vivo. Conditions: male ICR mice, oral calcium L-arabonate 1.25, 2.5, 5.0 mmol/kg or calcium carbonate 5 mmol/kg, up to 4 hours. The protocol:
For the experiment, 11-weeks old male ICR mice were used after overnight fasting. During the test period, the mice were given deionized water only. The mice were divided into four groups (Groups I to IV, 5 animals in each group), and the test substance was orally administered as a solution in deionized water. […] The blood calcium level was quantified by a chelating calorimetric method (ortho-cresolphthalein complexone (OCPC) method). The obtained data were analyzed by a paired t-test, and a risk ratio of 5% or less was considered as significant difference.

Take `O=C([O-])[C@H](O)[C@@H](O)[C@@H](O)CO.[Na+]` [sodium L-arabonate]: in data set [1], the “Ca level in blood, 0 min” value is 4.30 ± 0.121 mg/dL; the “Ca level in blood, 2 hrs” value is given as 5.59 ± 0.232 mg/dL; the “Ca level in blood, 4 hrs” value was found to be 5.62 ± 0.212 mg/dL; the “change in blood calcium level” value is listed as “significant increase in the blood calcium level”.
Take `O=C(O)[C@H](O)[C@@H](O)[C@@H](O)CO` [L-arabonic acid]: the “change in blood calcium level” value in data set [2] is “dose-dependent and significant increases in the blood calcium level; also recorded: calcium absorption was accelerated by L-arabonic acid, and the effect was rapidly acting and continuous”. Further, in data set [3] (after 24 hours, oral 5 mmol/kg), the “share of the total amount of administration remained in the cecum and colon” value is “About 30%”. In addition, the “absorption in the small intestine” value in data set [3] (from 2 to 6 hours after oral administration) was “hardly absorbed in the small intestine”. In addition, the “Residual ratio after administration, Cecum, After 2 hrs” value in data set [3] (oral 5 mmol/kg L-arabonic acid, cecum, 2 hrs) came to 47.7 ± 3.39%. Moreover, in data set [3] (oral 5 mmol/kg L-arabonic acid, cecum, 6 hrs), the “Residual ratio after administration, Cecum, After 6 hrs” value came to 60.6 ± 3.26%. Also, in data set [3] (oral 5 mmol/kg L-arabonic acid, cecum, 24 hrs), the “Residual ratio after administration, Cecum, After 24 hrs” value is listed as 25.9 ± 7.81%. Further, the “Residual ratio after administration, Colon, After 2 hrs” value in data set [3] (oral 5 mmol/kg L-arabonic acid, colon, 2 hrs) was 0.1 ± 0.14%. Further, the “Residual ratio after administration, Colon, After 6 hrs” value in data set [3] (oral 5 mmol/kg L-arabonic acid, colon, 6 hrs) was 7.4 ± 2.35%. Moreover, in data set [3] (oral 5 mmol/kg L-arabonic acid, colon, 24 hrs), the “Residual ratio after administration, Colon, After 24 hrs” value is 1.9 ± 0.37%. Besides, in data set [3] (oral 5 mmol/kg L-arabonic acid, small intestine, 2 hrs), the “Residual ratio after administration, Small intestine, After 2 hrs” value is reported as 23.0 ± 3.71%. For the same compound, the “Residual ratio after administration, Small intestine, After 6 hrs” value in data set [3] (oral 5 mmol/kg L-arabonic acid, small intestine, 6 hrs) is listed as 3.3 ± 2.50%. The “Residual ratio after administration, Small intestine, After 24 hrs” value in data set [3] (oral 5 mmol/kg L-arabonic acid, small intestine, 24 hrs) worked out at 0.8 ± 0.20%. Besides, the “Residual ratio after administration, Stomach, After 2 hrs” value in data set [3] (oral 5 mmol/kg L-arabonic acid, stomach, 2 hrs) turned out to be 0%. The “Residual ratio after administration, Stomach, After 6 hrs” value in data set [3] (oral 5 mmol/kg L-arabonic acid, stomach, 6 hrs) was found to be 0%. In addition, in data set [3] (oral 5 mmol/kg L-arabonic acid, stomach, 24 hrs), the “Residual ratio after administration, Stomach, After 24 hrs” value turned out to be 0%. The “L-arabonic acid in excreted feces” value in data set [3] (oral 5 mmol/kg, feces up to 24 hours) is recorded as “detected from the excreted feces”. In data set [3] (oral 5 mmol/kg, urine up to 24 hours), the “unaltered L-arabonic acid in urine” value is listed as “detected from the urine, even in small amount”. The “level of L-arabonic acid in the blood” value in data set [3] (throughout the test period, oral 5 mmol/kg) is reported as “below the detection limit”. In addition, the LD50 result in the data set on mice was “about 10 g/kg”.
Turning to `O=C(O)[C@H](O)[C@@H](O)[C@H](O)[C@H](O)CO` [D-gluconic acid, reference compound], the “change in blood calcium level” value in data set [2] is “not observed to have significant increases in the blood calcium level”.
As for “calcium D-gluconate [reference compound]”, in data set [4] (fourth week, calcium-deficient diet mice), the “absorption rate of calcium in the digestive tract, fourth week” value was 59.8%. Moreover, in data set [4] (second week, calcium-deficient diet mice), the “absorption rate of calcium in the digestive tract, second week” value was found to be 74.2%. Besides, in data set [4] (femur, 4 weeks), the “Femur Ash content” value was found to be 25 ± 1.3 mg, the “Femur Ca content” value is given as 8.7 ± 0.42 mg, the “Femur P content” value was determined as 4.7 ± 0.21 mg and the “Femur Weight” value is reported as 46 ± 2.1 mg. Also, in data set [4] (tibia, 4 weeks), the “Tibia Ash content” value is 23 ± 1.2 mg, the “Tibia Ca content” value is listed as 8.3 ± 0.34 mg, the “Tibia P content” value turned out to be 4.3 ± 0.16 mg and the “Tibia Weight” value stood at 44 ± 1.1 mg. Moreover, in data set [5] (fourth week, ovary-excised mice on calcium-deficient diet), the “absorption rate of calcium in the digestive tract, fourth week” value stood at 45.1%. For the same compound, the “absorption rate of calcium in the digestive tract, second week” value in data set [5] (second week, ovary-excised mice on calcium-deficient diet) is listed as 61.1%. Also, in data set [5] (femur, 4 weeks), the “Femur Ash content” value was 27 ± 0.4 mg, the “Femur Ca content” value came to 9.4 ± 0.18 mg, the “Femur P content” value is reported as 4.8 ± 0.14 mg and the “Femur Weight” value worked out at 50 ± 1.2 mg. In data set [5] (tibia, 4 weeks), the “Tibia Ash content” value stood at 24 ± 0.5 mg, the “Tibia Ca content” value is 8.6 ± 0.21 mg, the “Tibia P content” value worked out at 4.4 ± 0.08 mg and the “Tibia Weight” value was 46 ± 1.0 mg.
As to `O=C([O-])[O-].[Ca+2]` [calcium carbonate, reference compound], the “change in blood calcium level” value in data set [2] was “did not show any increase in the blood calcium level”. In data set [1], the “Ca level in blood, 0 min” value stood at 4.67 ± 0.297 mg/dL; the “Ca level in blood, 2 hrs” value was determined as 4.58 ± 0.143 mg/dL; the “Ca level in blood, 4 hrs” value is recorded as 4.82 ± 0.189 mg/dL; the “change in blood calcium level” value was “did not show any increase in the blood calcium level”. For the same compound, in data set [6], the “change in blood calcium level” value was “did not show any increase in the blood calcium level”.
